Measured values as given in patent US6461822B2, “Methods of screening compounds for their ability to inhibit the production of inflammatory cytokines” (Pfizer Inc., priority 1998, dated 2002).

Legend:
[1] = test system: ATP-induced IL-1β production; assay: IL-1β production assay, ELISA method (ATP-induced IL-1β production by LPS-activated human monocytes); format: cell-based; details: for ATP-induced IL-1β production: human monocytes treated continuously with agent, FIG. 2A
Method: IL-1β production assay—ELISA method. Human monocytes were isolated from heparinized blood collected from normal volunteers. 100 ml of blood was diluted with 20 ml of RPMI 1640 medium that contained 5% FBS, 25 mM Hepes, pH 7.3, 2 mM glutamine, and 1% penicillin/streptomycin (Maintenance Medium). 30 ml of this suspension then was layered onto 15 ml of Lymphocyte Separation Medium (Organo Technicon) and centrifuged for 30 min at 1400 rpm at room temperature in a clinical centrifuge. The resulting mononuclear cell layer was harvested, diluted with Maintenance Medium, and the cells were pelleted by centrifugation. The recovered cells were washed with Maintenance Medium by repeated centrifugation. Each well of a 96 well plate was seeded with 2×10^5 mononuclear cells in 0.1 ml of Maintenance Medium; monocytes were allowed to adhere for 2 hr, then the medium (containing non-adherent cells) was replaced with 0.1 ml of fresh medium, and the monocytes were incubated overnight at 37° C. Monocytes were activated with 10 ng/ml of LPS (E. coli; serotype 055:B5) for 2 hr after which the medium was replaced with 0.1 ml of RPMI 1640, 20 mM Hepes, pH 6.9, 100 units/ml penicillin, 100 μg/ml streptomycin, 1% FBS (Release Medium) containing the indicated concentration of test agent; compounds were dissolved in DMSO and the final DMSO concentration in all wells was maintained at 0.2%. […] Cells subsequently were removed by centrifugation, media supernatants were harvested, and IL-1β levels within the media samples were determined with a specific ELISA kit (R and D Systems); each data point is the average of quadruplicate determinations.

[2] = test system: soluble polypeptides of human monocytes (31, 32, 56 kDa); assay: Identification of DASU binding proteins: labeling of monocyte polypeptides by [14C]DASUs; details: [14C]labeled ligand 100 nM to 10 μm; FIG. 3
Method: Identification of DASU binding proteins. Human monocytes (isolated as described above and plated on 6 cm dishes) were treated with [^14C]Compound 1 in 3 ml of Release Medium (devoid of FBS) for 60 min after which cells were washed twice with 5 ml of Release Medium containing 5% FBS and suspended in 1 ml of 25 mM Hepes, pH 7, 150 mM NaCl, 1 μg/ml pepstatin, 1 μg/ml leupeptin, containing 0.5% saponin. Lysates were clarified by ultracentrifugation and the recovered soluble fractions were exchanged into 10 mM Tris, pH 8, containing 1 μg/ml each of pepstatin and leupeptin with the use of Centricon 30 concentration units. Final concentrates were lyophilized and then solubilized in SDS sample buffer.

[3] = target: bacterial glutathione S-transferase (Schistosoma japonicum, UniProt P08515); format: binding; details: identical conditions; FIG. 7A
Text: (§1) Labeling rDBPs. […].

[4] = target: T1, rDBP-32 (Homo sapiens, UniProt O00299); assay: Labeling rDBPs with [14C]Compound 2 (SDS PAGE, phosphorimager); format: binding; details: FIG. 7A
T1 construct: cleaved with thrombin to yield full-length rDBP-31 and rDBP-32 polypeptides; GST (N, cleaved yes); made in house; host or cells: E. coli (as for DBP-31: BL21 [DE3], pGEX2T)
Text: as §1

[5] = test system: porcine liver carboxylesterase; assay: in vitro carboxylesterase enzyme assay with p-nitrophenyl propionate; details: co-incubation with 100 μM

Sequence of bacterial glutathione S-transferase (P08515 2-218 limits assumed): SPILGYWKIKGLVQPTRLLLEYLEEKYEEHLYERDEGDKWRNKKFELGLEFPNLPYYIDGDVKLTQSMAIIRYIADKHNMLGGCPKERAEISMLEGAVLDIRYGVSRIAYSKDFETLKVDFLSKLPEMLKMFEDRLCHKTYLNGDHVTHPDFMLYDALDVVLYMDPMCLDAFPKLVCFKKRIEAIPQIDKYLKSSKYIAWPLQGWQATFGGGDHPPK

Row | SMILES | ATP-induced IL-1β production [1] | radiolabeled polypeptides in soluble fraction of monocyte extracts [2] | melting point [°C] | IL-1 production of [14C]DASU-treated cells exposed to ATP ([1]; FIG. 3B) | labeling of bacterial glutathione S-transferase [3] | labeling of rDBP-32 [4] | reduction of observed carboxylesterase enzymatic activity [5] [%] | IL-1β production after pretreatment and ATP in absence of compound ([1]; pretreated 60 min, then ATP without compound, FIG. 2B)
1 | O=[N+]([O-])c1ccc(OCC2CO2)cc1 (centres unmarked) [2-(4-nitro-phenoxymethyl)-oxirane, reference compound] | did not inhibit | – | – | – | – | – | – | –
2 | CC(C)c1cc(Cl)cc(C(C)C)c1NC(=O)NS(=O)(=O)c1cc(C2CO2)ccc1F (centres unmarked) [Compound 1, 1-(4-Chloro-2,6-diisopropyl-phenyl)-3-[2-fluoro-5-oxiranylbenzene-sulfonyl]-urea] | dose-dependent inhibition | several radiolabeled polypeptides were detected | 126 to 130 | dose-dependent inhibition | – | – | – | –
3 | O=C(Nc1c2c(cc3c1CCC3)CCC2)NS(=O)(=O)c1cc(C2CO2)ccc1F (centres unmarked) [Compound 2, 1-(1,2,3,5,6,7-Hexahydro-s-indacen-4-yl)-3-[2-fluoro-5-oxiranyl-benzenesulfonyl]-urea] | dose-dependent inhibition | several radiolabeled polypeptides were detected | – | – | not labeled | labeled by [^14C]Compound 2 in a concentration dependent manner | 67 | remained suppressed
